{"source": "patent US20070078185A1", "about": "“Methods and compositions for controlling invertebrate pests” (priority 2005, published 2007)", "key": {"C. elegans [1]": {"tested_on": "C. elegans", "conditions": "exogenous octopamine (Horvitz et al., Science 216:1012-1014 (1982)); cited from earlier work"}, "C. elegans [2]": {"tested_on": "C. elegans", "assay": "In vivo response test: suppression of head oscillations in response to anterior touch, C. elegans on agar plates", "conditions": "compound added to C. elegans grown on agar plates at 0.3 mg/ml", "method": "Behavioral assays were performed with young adults at room temperature (22-24° C.) and the different genotypes were scored in parallel on independent days. Egg-laying assays were performed as described by Koelle and Horvitz (Cell 84:115 (1996)). Suppression of head oscillations was tested by striking animals that were outside the bacterial lawn with a fine eyelash behind the posterior bulb of the pharynx; head oscillations were scored during backing response. Nose touch, osmotic avoidance touch were tested as previously described (see, for example, Way et al., Genes Dev. 3:1823-1833 (1989); or Bargmann et al., Cold Spring Harb. Symp. Quant. Biol. 55:529-538 (1990)). […] Animals were tested twenty-four hours after they were picked as late L4. Laser-ablated animals were tested at least ten times. […] Laser ablated animals were tested at least 20 times. Reversal assays were performed as described by Tsalik et al., J. Neurobiol. 56:178-197 (2003). Synthesis of 4-hydrazinomethyl-benzene-1,3-diol (compound 1). [drawing 4]\nAlternatively, putative tyrosine decarboxylase inhibitors can be screened in vivo by observing its effect on invertebrates. […] Furthermore, a tyrosine decarboxylase inhibitor is expected to cause egg laying defects in nematodes, fruit flies, and other invertebrates. […]"}, "C. elegans [3]": {"tested_on": "C. elegans", "assay": "Egg-laying assay with exogenous amine on Petri plates", "assay_type": "in vivo", "conditions": "wild-type animals, Petri plates with bacteria containing 20 mM tyramine", "method": "FIGS. 5A-SC are graphs showing that tdc-1 mutant nematodes are hyperactive in egg laying. […] Error bars indicate standard errors of the means. […] Single wild-type animals were transferred to Petri dishes with bacteria containing either no tyramine (n=13) or 20 mM tyramine (n=12). At the indicated times after transfer the number of eggs laid was counted. Error bars indicate standard errors ofthe means.\nWe therefore tested the effect of exogenous tyramine on egg laying behavior. Egg laying was inhibited on Petri plates containing 20 mM tyramine (FIG. 5C). […] Egg laying is regulated in part by the serotonergic HSN neurons, which induce muscle contraction of the vulva muscles (Trent et al., Genetics 104:619-647 (1983)).\nBehavioral assays were performed with young adults at room temperature (22-24° C.) and the different genotypes were scored in parallel on independent days. Egg-laying assays were performed as described by Koelle and Horvitz (Cell 84:115 (1996)). Suppression of head oscillations was tested by striking animals that were outside the bacterial lawn with a fine eyelash behind the posterior bulb of the pharynx; head oscillations were scored during backing response. Nose touch, osmotic avoidance touch were tested as previously described (see, for example, Way et al., Genes Dev. 3:1823-1833 (1989); or Bargmann et al., Cold Spring Harb. Symp. Quant. Biol. 55:529-538 (1990)). […]"}}}
{"smiles": "NCC(O)c1ccc(O)cc1", "note": "(stereo not drawn) [octopamine]", "values": [{"measurement": "effect of exogenous octopamine on egg laying", "setting": "C. elegans [1]", "result": "inhibitory effect"}]}
{"smiles": "NC(CO)C(=O)NNCc1ccc(O)cc1O", "note": "(racemic) [compound 2, N-(DL-seryl)-N′-(2,4,-dihydroxybenzyl) hydrazine]", "values": [{"measurement": "suppression of head oscillations in response to anterior touch", "setting": "C. elegans [2]", "result": "fail to suppress head oscillations"}]}
{"smiles": "NCCc1ccc(O)cc1", "note": "[tyramine]", "values": [{"measurement": "effect of exogenous tyramine on egg laying", "setting": "C. elegans [3]", "result": "inhibited"}]}
